Data taken from PubChem BioAssay (NCI).
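Interpolation was linear, between the two tested concentrations surrounding the appropriate level; five concentrations were tested over 48 hours in 96-well plates. At the GI50, growth is halved. At the TGI there is no net growth.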

Columns and labels:
Assay in all cases: NCI tumour cell line growth inhibition, 48 h
[1] = system: DLD-1 colon
[2] = system: DMS 114 small cell lung
[3] = system: HOP-18 NSCLC
[4] = system: M19-MEL melanoma
[5] = system: P388 leukemia
[6] = system: P388/ADR leukemia
[7] = system: SNB-78 CNS
[8] = system: XF 498 CNS
[9] = system: MDA-N
[10] = system: DMS 273 small cell lung
[11] = system: RXF-631 renal

Compound	TGI [1] [µM]	TGI [2] [µM]	TGI [3] [µM]	TGI [4] [µM]	TGI [5] [µM]	TGI [6] [µM]	TGI [7] [µM]	GI50 [8] [µM]	TGI [8] [µM]	TGI [9] [µM]	TGI [10] [µM]	TGI [11] [µM]
C=CC(=O)NC(N)=NC#N	311	250	283	278	> 43.5	> 58	399	157	313	–	–	–
COc1ccc2c3c1OC1C(OC)(OC)C=C[C@@]4(Br)[C@@H](C2)N(CC2CC2)CC[C@]314 (some centres undefined)	–	–	–	–	–	–	–	–	–	> 100	–	–
COc1cc(/C=C2\CCC/C(=C\c3ccc(O)c(OC)c3)C2=O)ccc1O	3.38	4.48	9.21	3.9	–	–	8.03	–	16.8	12.5	3.07	–
Oc1ccc2c3c1OC1c4[nH]ncc4C[C@H]4[C@@H](C2)N(CC2CC2)CC[C@]314 (some centres undefined)	–	–	–	–	–	–	–	–	–	> 100	–	–
O=C(CCc1ccccc1)NS(=O)(=O)c1ccccc1	> 100	> 100	> 100	> 100	–	–	–	–	> 100	–	–	> 100
CSc1nc2nn(Cc3ccccc3)cc2c(=O)[nH]1	> 100	> 100	> 100	> 100	–	–	> 100	–	–	–	> 100	–
O=C(OCCCl)C1OC(n2cc(F)c(=O)[nH]c2=O)CC1O (centres undefined)	> 100	> 100	> 100	> 100	–	–	> 100	–	> 100	–	–	–
CC1=NN(C(=O)Nc2ccc(Cl)cc2)C(=O)C2CCC(=O)N12 (centres undefined)	> 100	> 100	–	> 100	–	–	> 100	–	> 100	–	> 100	–
O=C(/C=C/c1ccccc1O)c1ccc([N+](=O)[O-])cc1	26.3	24.7	> 100	36.5	–	–	89.1	–	32.7	–	52.6	89.9
c1ccncc1	> 100	–	–	–	–	–	–	–	–	–	> 100	–
O=C(Cc1nc2ccccc2o1)C(=O)Nc1cccc(Cl)c1	> 100	> 100	> 100	> 100	–	–	> 100	–	> 100	–	–	–
CC(=O)O[C@H]1CCN2C(=O)C=CC(OCc3ccccc3)C12 (some centres undefined)	> 100	> 100	> 100	> 100	–	–	> 100	–	> 100	–	> 100	–
OCC[N+]12CCCN1CCC2	> 100	> 100	> 100	> 100	–	–	> 100	–	–	–	> 100	–
Cc1ccc(NC(=O)CC/C(CC(=O)C(C)(C)C)=N\NC(=O)C[n+]2ccccc2)cc1C	–	> 100	> 100	> 100	–	–	> 100	–	> 100	–	> 100	–
CCOc1ccc(/C=C/c2cc(OC)c(OC)c(OC)c2)cc1	> 100	5.15	> 100	> 100	–	–	0.85	–	> 100	–	–	> 38
O=C(c1ccccc1Cl)n1oc2ccccc2c1=O	–	–	–	–	–	–	–	–	–	> 100	–	–
CCCCCCn1c(SC)nc(COC(=O)NC)c1COC(=O)NC	–	–	–	–	–	–	–	–	–	36.1	–	–
CN(C)CCC(CCN(C)C)=NO	> 100	> 100	> 100	> 100	–	–	> 100	–	–	–	> 100	> 100
C/C(=N\OCC(O)CNCCSCc1ccccc1)c1ccccc1Cl (centres undefined)	–	–	–	–	–	–	–	–	–	37.4	–	–
Oc1ccc2ccccc2c1N=Nc1cc(Cl)ccc1Cl	–	–	–	–	–	–	–	–	–	> 50	–	–
N#CCC(=O)N/N=C1/C(=O)N(c2cc(Cl)ccc2Cl)C(=O)C(=O)C1c1nc2ccccc2s1 (centres undefined)	> 100	> 100	> 100	> 100	–	–	> 100	–	–	–	> 100	> 100
O=C(N/C(=C\c1cccc([N+](=O)[O-])c1)c1nc2ccccc2[nH]1)c1ccccc1	> 100	> 100	–	> 100	–	–	> 100	–	87.5	–	> 100	–
